Measured values from ChEMBL document CHEMBL6134780, “Halogenated retinoid derivatives as dual RARα and RXRα modulators for treating acute promyelocytic leukemia cells” (Eur J Med Chem, 2024).
Calls of active or inactive are those of the source. No cut-off for these calls is given here.

Key:
[1] = test system: NB-4; test: Cell cycle arrest in human NB4 cells assessed as accumulation of cells at G2/M phase at 0.5 uM incubated for 24 hrs by DAPI staining based flow cytometric analysis (reference value: 23 %); format: functional
[2] = test system: NB-4; test: Cell cycle arrest in human NB4 cells assessed as accumulation of cells at G2/M phase at 1 uM incubated for 24 hrs by DAPI staining based flow cytometric analysis (reference value: 23 %); format: functional
[3] = test system: NB-4; test: Cell cycle arrest in human NB4 cells assessed as accumulation of cells at G0/G1 phase at 2 uM incubated for 24 hrs by DAPI staining based flow cytometric analysis (reference value: 48 %); format: functional
[4] = test system: NB-4; test: Cell cycle arrest in human NB4 cells assessed as accumulation of cells at G2/M phase at 2 uM incubated for 24 hrs by DAPI staining based flow cytometric analysis (reference value: 23 %); format: functional
[5] = Cell cycle arrest in human ATRA-resistant NB4-LR2 cells assessed as accumulation of cells at S phase at 0.5 uM incubated for 24 hrs by DAPI staining based flow cytometric analysis (reference value: 21 %); format: functional
[6] = Cell cycle arrest in human ATRA-resistant NB4-LR2 cells assessed as accumulation of cells at sub-G1 phase at 1 uM incubated for 24 hrs by DAPI staining based flow cytometric analysis (reference value: 12 %); format: functional
[7] = Cell cycle arrest in human ATRA-resistant NB4-LR2 cells assessed as accumulation of cells at G2/M phase at 2 uM incubated for 24 hrs by DAPI staining based flow cytometric analysis (reference value: 25 %); format: functional
[8] = Cell cycle arrest in human ATRA-resistant NB4-LR2 cells assessed as accumulation of cells at sub-G1 phase at 2 uM incubated for 24 hrs by DAPI staining based flow cytometric analysis (reference value: 12 %); format: functional
[9] = test system: NB-4; test: Cell cycle arrest in human NB4 cells assessed as accumulation of cells at G0/G1 phase at 2 uM incubated for 6 hrs by DAPI staining based flow cytometric analysis (reference value: 56 %); format: functional
[10] = test system: NB-4; test: Cell cycle arrest in human NB4 cells assessed as accumulation of cells at G2/M phase at 2 uM incubated for 6 hrs by DAPI staining based flow cytometric analysis (reference value: 21 %); format: functional
[11] = test system: NB-4; test: Cell cycle arrest in human NB4 cells assessed as accumulation of cells at sub-G1 phase at 2 uM incubated for 6 hrs by DAPI staining based flow cytometric analysis (reference value: 3 %); format: functional
[12] = organism: Homo sapiens; test: Binding affinity to N-terminal His-tagged human RARalpha LBD R276E mutant extracted from Escherichia coli BL21 (DE3) cells by ITC analysis
[13] = Cell cycle arrest in human ATRA-resistant NB4-LR2 cells assessed as accumulation of cells at G0/G1 phase at 2 uM incubated for 3 hrs by DAPI staining based flow cytometric analysis (reference value: 57 %); format: functional
[14] = Cell cycle arrest in human ATRA-resistant NB4-LR2 cells assessed as accumulation of cells at S phase at 2 uM incubated for 3 hrs by DAPI staining based flow cytometric analysis (reference value: 19 %); format: functional
[15] = Cell cycle arrest in human ATRA-resistant NB4-LR2 cells assessed as accumulation of cells at G2/M phase at 2 uM incubated for 3 hrs by DAPI staining based flow cytometric analysis (reference value: 15 %); format: functional
[16] = test system: NB-4; test: Cell cycle arrest in human NB4 cells transfected with pLVX-shRNA2-negative control assessed as accumulation of cells at S phase at 1 uM incubated for 12 hrs by DAPI staining based flow cytometric analysis (reference value: 26 %); format: functional
[17] = test system: NB-4; test: Cell cycle arrest in human NB4 cells transfected with pLVX-shRNA2-negative control assessed as accumulation of cells at sub-G1 phase at 1 uM incubated for 12 hrs by DAPI staining based flow cytometric analysis (reference value: 4 %); format: functional
[18] = test system: NB-4; test: Cell cycle arrest in human NB4 cells transfected with pLVX-shRNA2-negative control assessed as accumulation of cells at G0/G1 phase at 2 uM incubated for 12 hrs by DAPI staining based flow cytometric analysis (reference value: 46 %); format: functional
[19] = test system: NB-4; test: Cell cycle arrest in human NB4 cells transfected with pLVX-shPML-RARalpha plasmid assessed as accumulation of cells at G0/G1 phase at 1 uM incubated for 12 hrs by DAPI staining based flow cytometric analysis (reference value: 38 %); format: functional
[20] = test system: NB-4; test: Cell cycle arrest in human NB4 cells transfected with pLVX-shPML-RARalpha plasmid assessed as accumulation of cells at S phase at 1 uM incubated for 12 hrs by DAPI staining based flow cytometric analysis (reference value: 19 %); format: functional
[21] = test system: NB-4; test: Cell cycle arrest in human NB4 cells transfected with pLVX-shPML-RARalpha plasmid assessed as accumulation of cells at sub-G1 phase at 1 uM incubated for 12 hrs by DAPI staining based flow cytometric analysis (reference value: 21 %); format: functional
[22] = test system: NB-4; test: Cell cycle arrest in human NB4 cells transfected with pLVX-shPML-RARalpha plasmid assessed as accumulation of cells at G2/M phase at 2 uM incubated for 12 hrs by DAPI staining based flow cytometric analysis (reference value: 22 %); format: functional
[23] = test system: NB-4; test: Cell cycle arrest in human NB4 cells transfected with pLVX-shPML-RARalpha plasmid assessed as accumulation of cells at sub-G1 phase at 2 uM incubated for 12 hrs by DAPI staining based flow cytometric analysis (reference value: 21 %); format: functional
[24] = test system: ATRA-resistant NB4-LR2; test: Cell cycle arrest in human ATRA-resistant NB4-LR2 cells transfected with pLVX-shRXRalpha assessed as increase in cyclin B1 expression at 1 uM incubated for 12 hrs by Western blot analysis; format: functional, cell-based
[25] = test system: ATRA-resistant NB4-LR2; test: Induction of apoptosis in human ATRA-resistant NB4-LR2 cells transfected with pLVX-shRXRalpha assessed as increase in cleaved PARP expression at 1 uM incubated for 12 hrs by Western blot analysis; format: functional, cell-based
[26] = Cell cycle arrest in human ATRA-resistant NB4-LR2 cells assessed as accumulation of cells at G2/M phase at 1 uM incubated for 12 hrs by DAPI staining based flow cytometric analysis (reference value: 28 %); format: functional

Work on `Cc1cc2c(cc1C(=O)/C(Br)=C/c1ccc(C(=O)O)cc1)C(C)(C)CCC2(C)C` yielded an Activity [1] of 26%, an Activity [2] of 45% and an Activity [3] of 35%. For the same molecule, the Activity [4] was 37%, the Activity [5] was 12% and the Activity [6] was 20%. For the same molecule, the Activity [7] was 23%, the Activity [8] was 21% and the Activity [9] was 30%. The Activity [10] was 40%, the Activity [11] was 3% and the Activity [12] was “inactive”. The Activity [13] was 48%, the Activity [14] was 6% and the Activity [15] was 33%. For the same molecule, the Activity [16] was 8%, the Activity [17] was 7% and the Activity [18] was 30%. For the same molecule, the Activity [19] was 27%, the Activity [20] was 21% and the Activity [21] was 24%. The Activity [22] was 20%, the Activity [23] was 27% and the Activity [24] was “inactive”. The Activity [25] was “inactive” and the Activity [26] was 52%.
